Consider 26 molecules from patent publication US8859535B2, “Hydroxy substituted isoquinolinone derivatives” (Novartis AG, priority 2011, dated 2014).

Structures are written as SMILES.

T1 sequence (Q00987 2-188): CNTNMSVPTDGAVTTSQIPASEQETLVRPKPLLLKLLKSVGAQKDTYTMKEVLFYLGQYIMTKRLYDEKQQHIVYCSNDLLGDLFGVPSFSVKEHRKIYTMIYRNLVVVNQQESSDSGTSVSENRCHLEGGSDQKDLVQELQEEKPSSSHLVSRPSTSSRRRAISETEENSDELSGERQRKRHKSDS

The test has as its target T1, human MDM2 protein (amino acids 2-188) (Homo sapiens, UniProt Q00987).
T1 construct: human MDM2 protein (amino acids 2-188); made in house
Put plainly: p53-MDM2 TR-FRET assay, modified (p53-MDM2 Assay 2). Particulars: 0.1 nM MDM2, 0.1 nM Europium labeled streptavidin; read-out: IC50 (nM) of p53-Hdm2 inhibition (TR-FRET) Assay 2. The class given is binding. On the procedure: Time Resolved Fluorescence Energy Transfer (TR-FRET) Assay
The inhibition of p53-MDM2 and p53-MDM4 interactions is measured by time resolved fluorescence energy transfer (TR-FRET). Fluorescence energy transfer (or Foerster resonance energy transfer) describes an energy transfer between donor and acceptor fluorescent molecules. For this assay, human MDM2 protein (amino acids 2-188) and human MDM4 protein (amino acids 2-185), tagged with a C-terminal biotin moiety, are used in combination with a Europium labeled streptavidin (Perkin Elmer, Inc., Waltham, Mass., USA) serving as the donor fluorophore. The p53 derived, Cy5 labeled peptide Cy5-TFSDLWKLL (p53 aa18-26) is the energy acceptor. Upon excitation of the donor molecule at 340 nm, binding interaction between MDM2 or MDM4 and the p53 peptide induces energy transfer and enhanced response at the acceptor emission wavelength at 665 nm. Disruption of the formation of the p53-MDM2 or p53-MDM4 complex due to an inhibitor molecule binding to the p53 binding site of MDM2 or MDM4 results in increased donor emission at 620 nm. The ratiometric FRET assay readout is calculated from the raw data of the two distinct fluorescence signals measured in time resolved mode (fluorescence 665 nm/fluorescence 620 nm×1000).
After addition of 1.25 nM MDM2-biotinylated or 2.5 nM MDM4-biotinylated (internal preparations), and 0.625 nM Europium labeled streptavidin (Perkin Elmer), the solution is pre-incubated for 15 minutes at room temperature, then 10 nM Cy5-p53 peptide (internal preparation) is added before an incubation at room temperature for 15 minutes prior to reading the plate. For measurement of samples, a Victor II microplate reader (Perkin Elmer) is used with the following settings: Excitation 340 nm, Emission Donor 620 nm and Emission Acceptor 665 nm. IC50 values are calculated by curve fitting using XLfit. If not specified, reagents are purchased from Sigma-Aldrich Chemie GmBH, Buchs, Switzerland.
This assay was used to evaluate compounds displaying inhibition of p53-MDM2 interaction and p53-MDM4 interaction at IC50s of 0.005 to 50 μM (p53-MDM2 Assay 1 and p53-MDM4 Assay 1, respectively). For selected compounds displaying IC50s between […] on MDM2, a slightly modified assay is used with the following adaptations: 0.1 nM MDM2, 0.1 nM Europium labeled streptavidin and Tecan genios Pro is used as a microplate reader for the fluorescence measurements (p53-MDM2 Assay 2).
Turning to `COc1cc2c(cc1OC(C)C)[C@H](c1ccc(Cl)cc1)N(c1ccc([C@](C)(O)C3CCN(C(=O)COC(C)=O)CC3)cc1)C(=O)C2` (single isomer, unassigned) [Example 129], the concentration for half-maximal inhibition (IC50) was 99.8 nM.

For the molecule `COc1cc2c(cc1OC(C)C)[C@H](c1ccc(Cl)cc1)N(c1ccc([C@@](C)(O)C3CCN(CCO)CC3)cc1)C(=O)C2` (single isomer, unassigned) [Example 131], the IC50 was 1.42 nM.

Consider `COc1cc2c(cc1OC(C)C)[C@H](c1ccc(Cl)cc1)N(c1ccc([C@](C)(O)C3CCN(CCO)CC3)cc1)C(=O)C2` (single isomer, unassigned) [Example 132], for which the IC50 came to 25.3 nM.

On to `COc1cc2c(cc1OC(C)C)[C@H](c1ccc(Cl)cc1)N(c1ccc([C@@](C)(O)C3CCN(C(=O)CO)CC3)cc1)C(=O)C2` (single isomer, unassigned) [Example 133], for which the IC50 was 1.62 nM.

Consider `COc1cc2c(cc1OC(C)C)[C@H](c1ccc(Cl)cc1)N(c1ccc([C@](C)(O)C3CCN(C(=O)CO)CC3)cc1)C(=O)C2` (single isomer, unassigned) [Example 134], for which the IC50 came out at 141 nM.

Take `COc1cc2c(cc1OC(C)C)[C@H](c1ccc(Cl)cc1)N(c1ccc([C@@](C)(O)C34CCC(CC3)C4)cc1)C(=O)C2` (single isomer, unassigned) [Example 139]: the IC50 turned out to be 2.72 nM.

Consider `COc1cc2c(cc1OC(C)C)[C@H](c1ccc(Cl)cc1)N(c1ccc([C@](C)(O)C34CCC(CC3)C4)cc1)C(=O)C2` (single isomer, unassigned) [Example 140], for which the IC50 is 305 nM.

As to `[2H]C([2H])([2H])Oc1cc2c(cc1OC(C)C)[C@H](c1ccc(Cl)cc1)N(c1ccc([C@](C)(O)C3CCS(=O)(=O)CC3)cc1)C(=O)C2` (single isomer, unassigned) [Example 152], the IC50 is 152 nM.

On to `[2H]C([2H])([2H])Oc1cc2c(cc1OC(C)C)[C@H](c1ccc(Cl)cc1)N(c1ccc([C@@](C)(O)C3CCS(=O)(=O)CC3)cc1)C(=O)C2` (single isomer, unassigned) [Example 153], for which the IC50 was found to be 3.16 nM.

Turning to `[2H]C([2H])([2H])Oc1cc2c(cc1OC(C)C)[C@H](c1ccc(Cl)cc1)N(c1ccc([C@](C)(O)C3CCN(C=O)CC3)cc1)C(=O)C2` (single isomer, unassigned) [Example 154], the IC50 was 78.7 nM.

On to `[2H]C([2H])([2H])Oc1cc2c(cc1OC(C)C)[C@H](c1ccc(Cl)cc1)N(c1ccc([C@@](C)(O)C3CCN(C=O)CC3)cc1)C(=O)C2` (single isomer, unassigned) [Example 155], for which the IC50 stood at 1.23 nM.

`COc1cc2c(cc1OC(C)C)[C@H](c1ccc(Cl)cc1)N(c1ccc([C@@](C)(O)C3CC4CCC(C3)O4)cc1)C(=O)C2` (single isomer, unassigned) [Example 159]: the IC50 came out at 0.894 nM.

For `COc1cc2c(cc1OC(C)C)[C@H](c1ccc(Cl)cc1)N(c1ccc([C@](C)(O)C3CC4CCC(C3)O4)cc1)C(=O)C2` (single isomer, unassigned) [Example 160], the half-inhibitory concentration (IC50) was 41.9 nM.

`COc1cc2c(cc1OC(C)C)[C@H](c1ccc(Cl)cc1)N(c1ccc([C@@](C)(O)C3CC(C)(C)OC(C)(C)C3)cc1)C(=O)C2` (single isomer, unassigned) [Example 163]: the concentration for half-maximal inhibition (IC50) came out at 1.26 nM.

For the molecule `COc1cc2c(cc1OC(C)C)[C@H](c1ccc(Cl)cc1)N(c1ccc([C@](C)(O)C3CC(C)(C)OC(C)(C)C3)cc1)C(=O)C2` (single isomer, unassigned) [Example 164], the concentration for half-maximal inhibition (IC50) stood at 509 nM.

For the molecule `COc1cc2c(cc1OC(C)C)[C@H](c1ccc(Cl)cc1)N(c1ccc(C(C)(O)C3CN(C4COC4)C3)cc1)C(=O)C2` (stereo partly drawn) [Example 103, (S)-1-(4-Chloro-phenyl)-2-{4-[1-hydroxy-1-(1-oxetan-3-yl-azetidin-3-yl)-ethyl]-phenyl}-7-isopropoxy-6-methoxy-1,4-dihydro-2H-isoquinolin-3-one], the IC50 is 9.18 nM.

With `CNC(=O)N1C2CCCC1CC(C(C)(O)c1ccc(N3C(=O)Cc4cc(OC)c(OC(C)C)cc4[C@@H]3c3ccc(Cl)cc3)cc1)C2` (stereo partly drawn) [Example 119, 3-(1-{4-[(S)-1-(4-Chloro-phenyl)-7-isopropoxy-6-methoxy-3-oxo-3,4-dihydro-1H-isoquinolin-2-yl]-phenyl}-1-hydroxy-ethyl)-9-aza-bicyclo[3.3.1]nonane-9-carboxylic acid methylamide], the IC50 was found to be 1.47 nM.

Turning to `COc1cc2c(cc1OC(C)C)[C@H](c1ccc(Cl)cc1)N(c1ccc(C(C)(O)C3CC4CCCC(C3)N4C3COC3)cc1)C(=O)C2` (stereo partly drawn) [Example 120, (S)-1-(4-Chloro-phenyl)-2-{4-[1-hydroxy-1-(9-oxetan-3-yl-9-aza-bicyclo[3.3.1]non-3-yl)-ethyl]-phenyl}-7-isopropoxy-6-methoxy-1,4-dihydro-2H-isoquinolin-3-one], the half-inhibitory concentration (IC50) is 4.67 nM.

Turning to `COc1cc2c(cc1OC(C)C)[C@H](c1ccc(Cl)cc1)N(c1ccc(C(C)(O)C3CC4CCCC(C3)N4C(=O)COC(C)=O)cc1)C(=O)C2` (stereo partly drawn) [Example 121, Acetic acid 2-[3-(1-{4-[(S)-1-(4-chloro-phenyl)-7-isopropoxy-6-methoxy-3-oxo-3,4-dihydro-1H-isoquinolin-2-yl]-phenyl}-1-hydroxy-ethyl)-9-aza-bicyclo[3.3.1]non-9-yl]-2-oxo-ethyl ester], the IC50 came out at 3.44 nM.

Regarding `CCN1C2CCCC1CC(C(C)(O)c1ccc(N3C(=O)Cc4cc(OC)c(OC(C)C)cc4[C@@H]3c3ccc(Cl)cc3)cc1)C2` (stereo partly drawn) [Example 122, (S)-1-(4-Chloro-phenyl)-2-{4-[1-(9-ethyl-9-aza-bicyclo[3.3.1]non-3-yl)-1-hydroxy-ethyl]-phenyl}-7-isopropoxy-6-methoxy-1,4-dihydro-2H-isoquinolin-3-one], the IC50 came out at 2.31 nM.

`COc1cc2c(cc1OC(C)C)[C@H](c1ccc(Cl)cc1)N(c1ccc(C(C)(O)C3CC4CCCC(C3)N4C(=O)CO)cc1)C(=O)C2` (stereo partly drawn) [Example 123, (S)-1-(4-Chloro-phenyl)-2-(4-{1-hydroxy-1-[9-(2-hydroxy-acetyl)-9-aza-bicyclo[3.3.1]non-3-yl]-ethyl}-phenyl)-7-isopropoxy-6-methoxy-1,4-dihydro-2H-isoquinolin-3-one]: the IC50 worked out at 4.2 nM.

On to `COc1cc2c(cc1OC(C)C)[C@H](c1ccc(Cl)cc1)N(c1ccc(C(C)(O)C3CCN(C[C@@H](O)CO)CC3)cc1)C(=O)C2` (stereo partly drawn) [Example 130, (S)-1-(4-Chloro-phenyl)-2-(4-{1-[1-((R)-2,3-dihydroxy-propyl)-piperidin-4-yl]-1-hydroxy-ethyl}-phenyl)-7-isopropoxy-6-methoxy-1,4-dihydro-2H-isoquinolin-3-one], for which the IC50 worked out at 2.08 nM.

On to `[2H]C([2H])([2H])Oc1cc2c(cc1OC(C)C)[C@H](c1ccc(Cl)cc1)N(c1ccc(C(C)(O)C3CCN(C=O)CC3)cc1)C(=O)C2` (stereo partly drawn) [Example 151, 4-(1-{4-[(S)-1-(4-Chloro-phenyl)-7-isopropoxy-6-d^3-methoxy-3-oxo-3,4-dihydro-1H-isoquinolin-2-yl]-phenyl}-1-hydroxy-ethyl)-piperidine-1-carbaldehyde], for which the concentration for half-maximal inhibition (IC50) amounted to 2.09 nM.

For the molecule `COc1cc2c(cc1OC(C)C)[C@H](c1ccc(Cl)cc1)N(c1ccc(C(C)(O)C3C4CNCC3COC4)cc1)C(=O)C2` (stereo partly drawn) [Example 156, (S)-1-(4-Chloro-phenyl)-2-{4-[1-hydroxy-1-(3-oxa-7-aza-bicyclo[3.3.1]non-9-yl)-ethyl]-phenyl}-7-isopropoxy-6-methoxy-1,4-dihydro-2H-isoquinolin-3-one], the IC50 is 12.6 nM.

In the case of `COc1cc2c(cc1OC(C)C)[C@H](c1ccc(Cl)cc1)N(c1ccc(C(C)(O)C3C4COCC3CN(C=O)C4)cc1)C(=O)C2` (stereo partly drawn) [Example 157, 9-(1-{4-[(S)-1-(4-Chloro-phenyl)-7-isopropoxy-6-methoxy-3-oxo-3,4-dihydro-1H-isoquinolin-2-yl]-phenyl}-1-hydroxy-ethyl)-3-oxa-7-aza-bicyclo[3.3.1]nonane-7-carbaldehyde], the IC50 was determined as 4.89 nM.

Turning to `CC(C)Oc1cc2c(cc1OC(F)F)CC(=O)N(c1ccc(C(C)(O)C3CCOCC3)cc1)C2c1ccc(Cl)cc1` (centres unmarked) [Example 165, 1-(4-Chloro-phenyl)-6-difluoromethoxy-2-{4-[1-hydroxy-1-(tetrahydro-pyran-4-yl)-ethyl]-phenyl}-7-isopropoxy-1,4-dihydro-2H-isoquinolin-3-one], the IC50 stood at 12 nM.
